Values quoted from earlier work, collected in patent US6586005B1, “Extended release formulation of etodolac” (Ranbaxy Laboratories Limited, priority 1999, dated 2003).

CCc1cccc2c3c([nH]c12)C(CC)(CC(=O)O)OCC3 (centres unmarked) [Etodolac, 1,8-diethyl-1,3,4,9-tetrahydropyrano [3,4-b] indole-1-acetic acid]
Difference between solubility at pH 5 to pH 7 (pH 5 versus pH 7): thirty
Aqueous solubility (pH independent below pH 3): very low aqueous solubility
